According to PubChem BioAssay (NCI):
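Protocol summary: plate cells (96-well), add compound at 5 concentrations, incubate 48 h, interpolate endpoints linearly. Abbreviation: GI50, concentration required for 50% inhibition of growth. Definition used: TGI = concentration required for complete inhibition of growth.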

Tests used:
Assay in all cases: DTP human tumour cell line panel, 48 h
NCI-H522 lung = test system: NCI-H522 lung
A498 renal = test system: A498 renal
HCT-116 colon = test system: HCT-116 colon
DU-145 prostate = test system: DU-145 prostate
SK-MEL-28 melanoma = test system: SK-MEL-28 melanoma
HOP-62 NSCLC = test system: HOP-62 NSCLC
HCT-15 colon = test system: HCT-15 colon
RXF 393 renal = test system: RXF 393 renal
ACHN renal = test system: ACHN renal
MALME-3M melanoma = test system: MALME-3M melanoma
786-0 renal = test system: 786-0 renal
T-47D breast = test system: T-47D breast
UACC-62 melanoma = test system: UACC-62 melanoma
LOX IMVI melanoma = test system: LOX IMVI melanoma
IGROV1 ovarian = test system: IGROV1 ovarian
NCI/ADR-RES ovarian = test system: NCI/ADR-RES ovarian
SNB-19 CNS = test system: SNB-19 CNS
TK-10 renal = test system: TK-10 renal
MOLT-4 leukemia = test system: MOLT-4 leukemia
HL-60(TB) leukemia = test system: HL-60(TB) leukemia
OVCAR-4 ovarian = test system: OVCAR-4 ovarian
OVCAR-3 ovarian = test system: OVCAR-3 ovarian
SK-MEL-5 melanoma = test system: SK-MEL-5 melanoma
SW-620 colon = test system: SW-620 colon
HT29 colon = test system: HT29 colon
HCC-2998 colon = test system: HCC-2998 colon
A549 NSCLC = test system: A549 NSCLC
MCF7 breast = test system: MCF7 breast
EKVX NSCLC = test system: EKVX NSCLC
HS 578T breast = test system: HS 578T breast
MDA-MB-231 breast = test system: MDA-MB-231 breast
K-562 leukemia = test system: K-562 leukemia
SK-MEL-2 melanoma = test system: SK-MEL-2 melanoma
SK-OV-3 ovarian = test system: SK-OV-3 ovarian
SR leukemia = test system: SR leukemia
UO-31 renal = test system: UO-31 renal
SF-295 CNS = test system: SF-295 CNS
COLO 205 colon = test system: COLO 205 colon
MDA-MB-435 = test system: MDA-MB-435
CAKI-1 renal = test system: CAKI-1 renal
NCI-H226 lung = test system: NCI-H226 lung
OVCAR-8 ovarian = test system: OVCAR-8 ovarian
KM12 colon = test system: KM12 colon
SNB-75 CNS = test system: SNB-75 CNS
SF-539 CNS = test system: SF-539 CNS
NCI-H460 lung = test system: NCI-H460 lung
SN12C renal = test system: SN12C renal
M14 melanoma = test system: M14 melanoma
CCRF-CEM leukemia = test system: CCRF-CEM leukemia
SF-268 CNS = test system: SF-268 CNS
NCI-H23 lung = test system: NCI-H23 lung
OVCAR-5 ovarian = test system: OVCAR-5 ovarian
BT-549 breast = test system: BT-549 breast
RPMI-8226 leukemia = test system: RPMI-8226 leukemia
U251 CNS = test system: U251 CNS
PC-3 prostate = test system: PC-3 prostate
HOP-92 NSCLC = test system: HOP-92 NSCLC

CCCCCCCC(=O)SCC/C=C/[C@@H]1CC(=O)NCc2nc(co2)C2=N[C@@](C)(CS2)C(=O)N[C@@H](C(C)C)C(=O)O1
GI50 (NCI-H522 lung): 8.08 nM
TGI (NCI-H522 lung): 121 nM
GI50 (A498 renal): 9.6 nM
TGI (A498 renal): 39.6 nM
GI50 (HCT-116 colon): 12.6 nM
TGI (HCT-116 colon): 1140 nM
GI50 (DU-145 prostate): 12.3 nM
TGI (DU-145 prostate): > 50000 nM
GI50 (SK-MEL-28 melanoma): 13.8 nM
TGI (SK-MEL-28 melanoma): 936 nM
GI50 (HOP-62 NSCLC): 16.9 nM
GI50 (HCT-15 colon): 233 nM
TGI (HCT-15 colon): > 20400 nM
GI50 (RXF 393 renal): 21.2 nM
TGI (RXF 393 renal): 139 nM
GI50 (ACHN renal): 47.5 nM
TGI (ACHN renal): 320 nM
GI50 (MALME-3M melanoma): 11.2 nM
TGI (MALME-3M melanoma): > 50000 nM
GI50 (786-0 renal): 45.6 nM
TGI (786-0 renal): > 50000 nM
GI50 (T-47D breast): 31.2 nM
TGI (T-47D breast): 201 nM
GI50 (UACC-62 melanoma): 9.17 nM
TGI (UACC-62 melanoma): 53.6 nM
GI50 (LOX IMVI melanoma): 27.7 nM
TGI (LOX IMVI melanoma): 103 nM
GI50 (IGROV1 ovarian): 11.4 nM
TGI (IGROV1 ovarian): 163 nM
GI50 (NCI/ADR-RES ovarian): 606 nM
TGI (NCI/ADR-RES ovarian): > 31600 nM
GI50 (SNB-19 CNS): 115 nM
TGI (SNB-19 CNS): > 50000 nM
GI50 (TK-10 renal): 11.7 nM
TGI (TK-10 renal): 126 nM
GI50 (MOLT-4 leukemia): 24.1 nM
TGI (MOLT-4 leukemia): 25700 nM
GI50 (HL-60(TB) leukemia): 29.4 nM
TGI (HL-60(TB) leukemia): 31800 nM
GI50 (OVCAR-4 ovarian): 27.6 nM
TGI (OVCAR-4 ovarian): > 50000 nM
GI50 (OVCAR-3 ovarian): 24.1 nM
TGI (OVCAR-3 ovarian): 156 nM
GI50 (SK-MEL-5 melanoma): 17.9 nM
TGI (SK-MEL-5 melanoma): 77.6 nM
GI50 (SW-620 colon): 42.3 nM
TGI (SW-620 colon): 1900 nM
GI50 (HT29 colon): 13.6 nM
TGI (HT29 colon): 7780 nM
GI50 (HCC-2998 colon): 19.6 nM
TGI (HCC-2998 colon): 216 nM
GI50 (A549 NSCLC): 18.4 nM
TGI (A549 NSCLC): 1910 nM
GI50 (MCF7 breast): 31.1 nM
TGI (MCF7 breast): > 50000 nM
GI50 (EKVX NSCLC): 34.4 nM
TGI (EKVX NSCLC): > 50000 nM
GI50 (HS 578T breast): 12.5 nM
GI50 (MDA-MB-231 breast): 54 nM
TGI (MDA-MB-231 breast): 8130 nM
GI50 (K-562 leukemia): 39.8 nM
TGI (K-562 leukemia): > 50000 nM
GI50 (SK-MEL-2 melanoma): 13.2 nM
TGI (SK-MEL-2 melanoma): 331 nM
GI50 (SK-OV-3 ovarian): 10.7 nM
TGI (SK-OV-3 ovarian): 101 nM
GI50 (SR leukemia): 16.4 nM
TGI (SR leukemia): > 50000 nM
GI50 (UO-31 renal): 43 nM
TGI (UO-31 renal): 487 nM
GI50 (SF-295 CNS): 26.4 nM
TGI (SF-295 CNS): 282 nM
GI50 (COLO 205 colon): 34.2 nM
TGI (COLO 205 colon): 141 nM
GI50 (MDA-MB-435): 14.8 nM
TGI (MDA-MB-435): 1630 nM
GI50 (CAKI-1 renal): 125 nM
TGI (CAKI-1 renal): 394 nM
GI50 (NCI-H226 lung): 86.1 nM
TGI (NCI-H226 lung): 2370 nM
GI50 (OVCAR-8 ovarian): 12.4 nM
TGI (OVCAR-8 ovarian): > 50000 nM
GI50 (KM12 colon): 25.3 nM
TGI (KM12 colon): 1610 nM
GI50 (SNB-75 CNS): 10.8 nM
TGI (SNB-75 CNS): > 50000 nM
GI50 (SF-539 CNS): 18.2 nM
TGI (SF-539 CNS): > 50000 nM
GI50 (NCI-H460 lung): 13.7 nM
TGI (NCI-H460 lung): 8550 nM
GI50 (SN12C renal): 50.8 nM
TGI (SN12C renal): > 50000 nM
GI50 (M14 melanoma): 20.5 nM
TGI (M14 melanoma): > 50000 nM
GI50 (CCRF-CEM leukemia): 29.6 nM
TGI (CCRF-CEM leukemia): > 50000 nM
GI50 (SF-268 CNS): 42.2 nM
TGI (SF-268 CNS): 8340 nM
GI50 (NCI-H23 lung): 41.1 nM
GI50 (OVCAR-5 ovarian): 8.49 nM
TGI (OVCAR-5 ovarian): > 50000 nM
GI50 (BT-549 breast): 127 nM
TGI (BT-549 breast): > 50000 nM
GI50 (RPMI-8226 leukemia): 90 nM
TGI (RPMI-8226 leukemia): > 50000 nM
GI50 (U251 CNS): 44.8 nM
TGI (U251 CNS): 472 nM
GI50 (PC-3 prostate): 14.2 nM
TGI (PC-3 prostate): > 50000 nM
GI50 (HOP-92 NSCLC): 14.7 nM
TGI (HOP-92 NSCLC): 111 nM
